Test: recombinant UMI read abundance after kanamycin selection (control-corrected) (log10(CPM+1)); higher = more efficient recombination; extreme values may be limits of the assay; sequences stand for … in AGTGCAGAGAAAATCGGCCAGTTTTCTCTGCCTGCAGTCCGCATGCCGTGGGACCCCTTGGGTTCTAACCTGTTGCCTAGATTTATGCAGCGGACTGCCTTTCTCCCAAAGTGATAAACCGG…AGGTTGGTTTCACT; site = the 11-nt donor
In short: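 The measure is log10(CPM+1) for recombinant UMIs. These were PCR-amplified across the donor–target junction and sequenced after Escherichia coli carrying a donor and donor-binding-loop pair library and a target plasmid with T7-inducible IS621 bridge recombinase was plated on IPTG (0.07 mM) plus kanamycin or unselected. CPM were averaged over two replicates and scaled by control-derived factors.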
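Also: IS621 bridge recombinase in Escherichia coli cells against a fixed T5 target plasmid.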

| Sequence | recombinant UMI read abundance (log10) |
| --- | --- |
| AGTTCCTCATGGACCGGTTTTCCCGGTAATCCGTATTTGCA (site AGTTCCTCTTG) | 2.47 |
| AATGCAACATGGACCGGTTTTCCCGGTAATCCGTATTTGCT (site AATGTAACTAG) | 0 |
| CGATCATCATGGACCGGTTTTCCCGGTAATCCGTATTTGCT (site CGATCAGCTAA) | 0.00801 |
| GTTCGAGCATGGACCGGTTTTCCCGGTAATCCGTATTTGAA (site GTTCGAGCTTG) | 0 |
| GGTGTTCCATGGACCGGTTTTCCCGGTAATCCGTATTTGGT (site GTTGTTCCTAC) | 0 |
| AGGAATCCATGGACCGGTTTTCCCGGTAATCCGTATTTGCT (site CGGAATCCTAA) | 0.0057 |
| ACTGGTGCATGGACCGGTTTTCCCGGTAATCCGTATTTGGT (site ACTGGTGCTAC) | 1.69 |
| TGGACAGCATGGACCGGTTTTCCCGGTAATCCGTATTTGCT (site TGGACAGCTAG) | 2.26 |
| CCAGGACCATGGACCGGTTTTCCCGGTAATCCGTATTTGGG (site CAAGGACCTCC) | 0.0304 |
| GGGGAGTCATGGACCGGTTTTCCCGGTAATCCGTATTTGCC (site GGGGAGTCTGG) | 1.78 |
| TAGCCCACATGGACCGGTTTTCCCGGTAATCCGTATTTGTT (site TAGCCCACTAA) | 0.409 |
| GGTCCAACATGGACCGGTTTTCCCGGTAATCCGTATTTGTA (site GGTCCAACTTT) | 0.0114 |
| AGCGAGTCATGGACCGGTTTTCCCGGTAATCCGTATTTGAT (site AGCGAGTCTAT) | 2.73 |
| GAATGGCCATGGACCGGTTTTCCCGGTAATCCGTATTTGCA (site CAATGGCCTTG) | 0 |
| AGCCTTTCATGGACCGGTTTTCCCGGTAATCCGTATTTGTC (site AGCCTTTCTGT) | 0.00535 |
| CAATGCTCATGGACCGGTTTTCCCGGTAATCCGTATTTGAA (site CAATGCTCTAT) | 1.03 |
| TTGTGATCATGGACCGGTTTTCCCGGTAATCCGTATTTGTG (site TTGTGATCTCA) | 1.25 |
| GTAGGTACATGGACCGGTTTTCCCGGTAATCCGTATTTGAA (site GTAGGTACTTT) | 1.75 |
| GAAGTTTCATGGACCGGTTTTCCCGGTAATCCGTATTTGTT (site GAAGGTTCTAA) | 0 |
| AGTCCGACATGGACCGGTTTTCCCGGTAATCCGTATTTGTC (site AGTCCGACTGA) | 0.624 |
| CGGAATACATGGACCGGTTTTCCCGGTAATCCGTATTTGTT (site CGGAATCCTAA) | 0 |
| GGCTAGACATGGACCGGTTTTCCCGGTAATCCGTATTTGCC (site GGATAGACTGG) | 0 |
| CTGTGACCATGGACCGGTTTTCCCGGTAATCCGTATTTGTA (site CTGTGACCTTA) | 0.00405 |
| CCAGTTGCATGGACCGGTTTTCCCGGTAATCCGTATTTGAT (site CCAGGTGCTAT) | 0.00995 |
| GCGTTAGCATGGACCGGTTTTCCCGGTAATCCGTATTTGTG (site TCGTTAGCTCA) | 0.669 |

| Sequence | recombinant UMI read abundance (log10) |
| --- | --- |
| TCGAGAGCATGGACCGGTTTTCCCGGTAATCCGTATTTGGC (site TCGAGAGCTGC) | 1.86 |
| GTTCGAGCATGGACCGGTTTTCCCGGTAATCCGTATTTGAA (site GTTCGAGCTTC) | 0 |
| TTACGTGCATGGACCGGTTTTCCCGGTAATCCGTATTTGTA (site TTACGTGCTTA) | 1.51 |
| TGGTAACCATGGACCGGTTTTCCCGGTAATCCGTATTTGTG (site TGGTAACCTCA) | 0.0137 |
| TAACCCGCATGGACCGGTTTTCCCGGTAATCCGTATTTGTG (site TAACCCGCTCA) | 0.00831 |
| CGGAATCCATGGACCGGTTTTCCCGGTAATCCGTATTTGTT (site CGGAGGCCTAA) | 0.012 |
| CGATCATCATGGACCGGTTTTCCCGGTAATCCGTATTTGCT (site CGGTTATCTAG) | 0 |
| TCAAACTCATGGACCGGTTTTCCCGGTAATCCGTATTTGCA (site TCACACTCTTG) | 1.25 |
| GTTCGAGCATGGACCGGTTTTCCCGGTAATCCGTATTTGCT (site GTTCGAGCTTG) | 1.03 |
| AATAGTGCATGGACCGGTTTTCCCGGTAATCCGTATTTGGT (site ATTAGTGCTAC) | 0.53 |
| AAGAACGCATGGACCGGTTTTCCCGGTAATCCGTATTTGGG (site AAGTACGCTCC) | 0.0143 |
| AATTATGCATGGACCGGTTTTCCCGGTAATCCGTATTTGGA (site AATTTTGCTTC) | 0.00678 |
| AACAGTCCATGGACCGGTTTTCCCGGTAATCCGTATTTGAT (site AACGGTCCTAT) | 0.0119 |
| CGGGAGTCATGGACCGGTTTTCCCGGTAATCCGTATTTGCC (site CGTGAGTCTGG) | 0.895 |
| ACCCAGACATGGACCGGTTTTCCCGGTAATCCGTATTTGGG (site ACCGAGACTCC) | 0.00445 |
| TAATGTCCATGGACCGGTTTTCCCGGTAATCCGTATTTGTA (site TAAAGTCCTTA) | 0.459 |
| CCTTCTCCATGGACCGGTTTTCCCGGTAATCCGTATTTGTG (site CCTTCTCCTCA) | 0.0156 |
| AATGTAACATGGACCGGTTTTCCCGGTAATCCGTATTTGCG (site AATGTAACTGG) | 0 |
| CAAGGCCCATGGACCGGTTTTCCCGGTAATCCGTATTTGTT (site CACGGCCCTAA) | 0.0285 |
| TTATGAGCATGGACCGGTTTTCCCGGTAATCCGTATTTGGG (site TTATGAGCTCC) | 0.0057 |
| AAACGTCCATGGACCGGTTTTCCCGGTAATCCGTATTTGAT (site AATCGTCCTAT) | 0.0129 |
| CGAGGACCATGGACCGGTTTTCCCGGTAATCCGTATTTGCG (site CGAGGACCTCG) | 0 |
| GGCACGTCATGGACCGGTTTTCCCGGTAATCCGTATTTGTT (site GGTACGTCTAA) | 0.0192 |
| CGGCCCTCATGGACCGGTTTTCCCGGTAATCCGTATTTGCA (site CGGCCCTCTTG) | 3.02 |
| GTTCGATCATGGACCGGTTTTCCCGGTAATCCGTATTTGCC (site GTTCGATCTGG) | 1.92 |

| Sequence | recombinant UMI read abundance (log10) |
| --- | --- |
| TAGAATACATGGACCGGTTTTCCCGGTAATCCGTATTTGCA (site TAGAAGACTTG) | 0.00484 |
| GACAATTCATGGACCGGTTTTCCCGGTAATCCGTATTTGAC (site GACAATTCTGT) | 0 |
| CACTTCTCATGGACCGGTTTTCCCGGTAATCCGTATTTGGG (site CGCTTCTCTCC) | 0 |
| TCCACCGCATGGACCGGTTTTCCCGGTAATCCGTATTTGCG (site TCCACCGCTTG) | 0 |
| AAAGTAACATGGACCGGTTTTCCCGGTAATCCGTATTTGCT (site AAAGTAACTAG) | 2.89 |
| CAAGCGCCATGGACCGGTTTTCCCGGTAATCCGTATTTGTG (site CAAGCGCCTGA) | 0.706 |
| GGTCCCTCATGGACCGGTTTTCCCGGTAATCCGTATTTGTG (site GGTCCCTCTCA) | 0.413 |
| GCGAAGCCATGGACCGGTTTTCCCGGTAATCCGTATTTGGA (site GCGAAGCCTCC) | 0.00526 |
| CACTCCTCATGGACCGGTTTTCCCGGTAATCCGTATTTGCG (site CACTCCTCTCG) | 1.71 |
| GCTAATACATGGACCGGTTTTCCCGGTAATCCGTATTTGGC (site TCTAATACTGC) | 0.548 |
| CTTACGGCATGGACCGGTTTTCCCGGTAATCCGTATTTGAT (site CTTACGGCTAT) | 1.44 |
| CCCTCGCCATGGACCGGTTTTCCCGGTAATCCGTATTTGCC (site CCCTCGCCTGG) | 0 |
| TGGACATCATGGACCGGTTTTCCCGGTAATCCGTATTTGCT (site GGGACATCTAG) | 0.348 |
| GAATGCTCATGGACCGGTTTTCCCGGTAATCCGTATTTGAA (site AAATGCTCTTT) | 0.536 |
| GATTGTCCATGGACCGGTTTTCCCGGTAATCCGTATTTGAT (site GATTGTCCTAT) | 1.17 |
| CTCTATACATGGACCGGTTTTCCCGGTAATCCGTATTTGCT (site CTCTAAACTAG) | 0 |
| GGCGTGGCATGGACCGGTTTTCCCGGTAATCCGTATTTGGT (site GGCGTGGCTAC) | 0.511 |
| CGGGATCCATGGACCGGTTTTCCCGGTAATCCGTATTTGAT (site CGGGAACCTAT) | 0.0108 |
| TTTGTTCCATGGACCGGTTTTCCCGGTAATCCGTATTTGGT (site TTTGTTCCTAC) | 0.0215 |
| TAAAATCCATGGACCGGTTTTCCCGGTAATCCGTATTTGTA (site TAAAGTCCTTA) | 0.431 |
| AGAACGGCATGGACCGGTTTTCCCGGTAATCCGTATTTGCG (site AGAACGGCTCG) | 1.75 |
| GGTACGCCATGGACCGGTTTTCCCGGTAATCCGTATTTGTT (site GGTACGTCTAA) | 0.426 |
| CAATTCCCATGGACCGGTTTTCCCGGTAATCCGTATTTGCG (site CAATTCCCTTG) | 1.67 |
| GAAGATTCATGGACCGGTTTTCCCGGTAATCCGTATTTGCT (site GAAGATTCTAG) | 2.54 |
| CTCCCTACATGGACCGGTTTTCCCGGTAATCCGTATTTGTG (site CTCCCTACTCA) | 0.525 |
